In PMC6009888, “Design, synthesis, and pharmacological evaluation of 2-amino-5-nitrothiazole derived semicarbazones as dual inhibitors of monoamine oxidase and cholinesterase: effect of the size of aryl binding site” (Journal of Enzyme Inhibition and Medicinal Chemistry, 2017):
“And” between values parts separate entries of the source, which are not always exact repeats. Equal entries are not always repeated. “Also recorded” adds a separate entry of the source. Where two headings read alike, the source gives them in different places.

Legend:
[1] = molecular target: T1, equine serum BuChE (Equus caballus, UniProt P81908); experiment: In vitro BuChE inhibition assay (Ellman's method, equine serum BuChE); type: biochemical
T1 construct: equine serum BuChE was used as enzyme; purchased Sigma-Aldrich; host or cells: equine serum
Protocol: About 30 µl of enzyme sample (AChE) was added to 60 µl of 20 mM sodium phosphate buffer (pH 7.4) and were incubated in the presence of 30 µl of 10 mM DTNB solution with different concentrations of the test compounds. The enzyme reaction was initiated by the addition of 30 µl of 0.8 mM ACTI. The mixtures were incubated for 15 min at 25 °C. […] Control experiments were carried out without inhibitor, and blanks were run without AChE enzyme. All the assays were performed in triplicate. IC50 values were determined using the GraphPad Prism 5.0 (San Diego, CA) and the results were expressed as mean ± SEM.
The BuChE activity was assayed as per the procedure followed for AChE activity except that equine serum BuChE was used as enzyme and butyrylthiocholine iodide (BuTI) was used as substrate.
0, 15, 30 and 60 min at 25 °C in sodium phosphate buffer (20 mM, pH 7.4) and DTNB solution (10 mM). […] The reaction was further incubated at 25 °C for a further 15 min and the residual enzyme activities were measured and the bar graphs were constructed. All measurements were carried out in triplicate and are expressed as mean ± SEM.

[2] = system: mice; experiment: Neurotoxicity screening (rotarod test); type: in vivo; details: for Neurotoxicity (animals that exhibit toxicity / animals tested): 30 mg/kg i.p.; for Neurotoxicity (verdict in words): 30 mg/kg, relative to phenytoin
In short: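 Male albino mice (CF-1 or Swiss, 18–25 g) got 30 mg/kg i.p. in 0.5% methylcellulose/water or PEG 200. Motor impairment was checked on a 3.2 cm rotarod turning at 6 rpm. Neurotoxicity meant failure to stay on the rod ≥1 min in each of three trials.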

[3] = molecular target: T2, MAO-A (Rattus norvegicus, UniProt P21396); experiment: In vitro MAO-A inhibition assay (rat brain mitochondria, serotonin substrate); type: biochemical; details: for IC50: rat brain mitochondria, serotonin substrate, mean ± SEM, triplicate
T2 construct: employing crude rat brain mitochondrial suspension; from tissue; host or cells: brain mitochondria of adult Wistar rats
T2 sequence (P21396 1-526): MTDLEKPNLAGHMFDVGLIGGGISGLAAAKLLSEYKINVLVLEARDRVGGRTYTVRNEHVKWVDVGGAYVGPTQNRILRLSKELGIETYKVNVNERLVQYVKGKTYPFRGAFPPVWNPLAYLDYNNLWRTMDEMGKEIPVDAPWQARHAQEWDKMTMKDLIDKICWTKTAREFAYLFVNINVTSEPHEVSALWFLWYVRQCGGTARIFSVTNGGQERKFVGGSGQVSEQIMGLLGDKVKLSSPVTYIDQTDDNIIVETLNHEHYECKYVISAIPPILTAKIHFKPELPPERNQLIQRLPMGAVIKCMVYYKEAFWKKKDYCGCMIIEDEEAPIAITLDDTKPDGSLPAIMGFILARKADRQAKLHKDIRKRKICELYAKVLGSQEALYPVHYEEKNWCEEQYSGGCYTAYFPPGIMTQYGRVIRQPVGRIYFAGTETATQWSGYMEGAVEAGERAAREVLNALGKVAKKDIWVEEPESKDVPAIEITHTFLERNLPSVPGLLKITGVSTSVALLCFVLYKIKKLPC
In short: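 Wistar rat brain mitochondria (0.80 mg protein/ml working suspension) were incubated with inhibitor at five concentrations in 50 mM Tris-HCl pH 8.2, 37 °C, 30 min. Substrates were serotonin (added as 4 mM) for MAO-A and benzylamine (added as 0.1 M) for MAO-B. After HCl stop, absorbance was read at 280 nm (5-hydroxyindolacetic acid) or 250 nm (benzaldehyde), in triplicate.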

[4] = physchem
[5] = In vitro DPPH radical scavenging assay; details: test sample 100 µg/ml, 100 µM methanolic DPPH, 30 min, 517 nm
Protocol: Antioxidant activity of the synthesised compounds (10 mg/ml) was evaluated using the radical scavenging capability against the stable free radical, 2,2′-diphenyl-1-picryl hydrazyl (DPPH·). The DPPH· scavenging capability was determined using UV based spectrophotometric assay. About 200 µl of the test sample solution (100 µg/ml) was added to 4 ml of 100 µM methanolic DPPH. […] Ascorbic acid (100 µg/ml) was used as reference. The percentage inhibition of DPPH activity was estimated using the formula: Percent (%) inhibition of DPPH activity = Acontrol-Asample/Acontrol×100 where Acontrol is the absorbance of DPPH· in methanol without an antioxidant and Asample is the absorbance of DPPH· in the presence of an antioxidant.

[6] = equine serum BuChE, BuTI substrate, mean ± SEM, read-out: BuChE In vitro IC50 (µM) ± SEM
[7] = read-out: MAO-A In vitro IC50 (µM) ± SEM

T1 sequence (P81908 whole entry): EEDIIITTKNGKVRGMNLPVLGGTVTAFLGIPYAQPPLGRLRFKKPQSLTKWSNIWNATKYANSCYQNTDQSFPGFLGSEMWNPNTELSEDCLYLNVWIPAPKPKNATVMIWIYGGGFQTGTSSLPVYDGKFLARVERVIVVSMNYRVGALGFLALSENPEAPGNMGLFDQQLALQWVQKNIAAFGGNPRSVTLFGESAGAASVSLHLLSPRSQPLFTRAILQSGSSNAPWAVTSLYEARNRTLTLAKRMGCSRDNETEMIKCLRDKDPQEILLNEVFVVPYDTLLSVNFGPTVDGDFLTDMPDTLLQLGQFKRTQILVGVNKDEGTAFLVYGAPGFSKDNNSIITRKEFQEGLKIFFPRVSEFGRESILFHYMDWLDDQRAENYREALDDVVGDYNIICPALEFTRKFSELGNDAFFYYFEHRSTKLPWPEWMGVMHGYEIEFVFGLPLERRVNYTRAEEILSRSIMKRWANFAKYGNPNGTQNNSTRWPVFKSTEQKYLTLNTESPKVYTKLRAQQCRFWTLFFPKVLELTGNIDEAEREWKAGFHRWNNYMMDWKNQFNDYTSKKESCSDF

Compound | IC50 [1, 6] [µM] | Neurotoxicity (animals that exhibit toxicity / animals tested) ([2]; 0.5 h) | Neurotoxicity (animals that exhibit toxicity / animals tested) ([2]; 1 h) | Neurotoxicity (animals that exhibit toxicity / animals tested) ([2]; 2 h) | Neurotoxicity (animals that exhibit toxicity / animals tested) ([2]; 4 h) | IC50 [3, 7] | logP ([4]; octanol/water) | % inhibition of DPPH activity [5] [%] | Neurotoxicity (verdict in words) [2] | BuChE: fold reduction in activity compared to compound 4 ([1]; ratio of IC50 values) [fold] | BuChE: fold reduction in activity compared to compound 5 ([1]; ratio of IC50 values) [fold] | Mode of MAO-A inhibition ([3]; Lineweaver–Burk plots, serotonin) | Ki ([3]; kinetic study, non-competitive model, GraphPad Prism, read-out: Ki (dissociation constant) against MAO-A) [µM] | Reversibility of MAO-A inhibition ([3]; time-dependent inhibition, pre-incubation 0, 15, 30, 60 min) | IC50 [1] [µM] | BuChE: fold less active relative to compound 17 ([1]; diaryl analogues) [fold] | IC50 ([3]; MAO-A In vitro IC50 (µM) ± SEM) | logP [4]
CC(=NNC(=O)Nc1ncc([N+](=O)[O-])s1)c1ccc(Cl)cc1 [Compound 5, 1-(1-(4-Chlorophenyl)ethylidene)-4-(5-nitrothiazol-2-yl)semicarbazide] | 0.553 ± 0.038 | 0/4 | 0/4 | 0/4 | 0/4 | 4761 ± 10.8 µM | 2.1 | 51.83 | – | – | – | – | – | – | – | – | – | –
CC(=NNC(=O)Nc1ncc([N+](=O)[O-])s1)c1ccc(Br)cc1 [Compound 4, 1-(1-(4-Bromophenyl)ethylidene)-4-(5-nitrothiazol-2-yl)semicarbazide] | 0.499 ± 0.003 | 0/4 | 0/4 | 0/4 | 0/4 | < 100 µM and 70.2 µM | 2.2 | 58.68 | non-neurotoxic | – | – | – | – | – | – | – | – | –
O=C(NN=C1C(=O)Nc2ccc(Br)cc21)Nc1ncc([N+](=O)[O-])s1 [Compound 21, 1-(5-Bromo-2-oxoindolin-3-ylidene)-4–(5-nitrothiazol-2-yl)semicarbazide] | 5.37 ± 0.278 | 1/4 | 0/4 | 0/4 | 0/4 | < 100 µM and 57.2 µM | 1.9 | 65.65 | mildly neurotoxic; also recorded: slightly neurotoxic | ~10.75 | ~9.7 | non-competitively | 17.3 ± 1.79 | reversible | – | – | – | –
O=C(NN=C(c1ccc(Cl)cc1)c1ccc(Cl)cc1)Nc1ncc([N+](=O)[O-])s1 [Compound 19, 1-(Bis(4-chlorophenyl)methylene)-4-(5-nitrothiazol-2-yl)semicarbazide] | – | 0/4 | 0/4 | 0/4 | 0/4 | – | – | 24.03 | – | – | – | – | – | – | 5.72 ± 0.874 | ~238 | > 100 µM and 50700 µM | 3.9
